Experiments:
TYK2-JH2 domain = molecular target: T1, TYK2-JH2 domain (Homo sapiens, UniProt P29597); assay: Binding activity test for JH2 domain of TYK2 (Tb-antibody/tracer FRET); conditions: for IC50: JH2 domain enzyme, 60 min at 25°C, then 4°C overnight, read-out: TYK2 JH2 Binding IC50; for JAK1/TYK2 selectivity: ratio of JAK1 JH2 to TYK2 JH2 binding IC50
T1 construct: JAK1-JH2 domain or TYK2-JH2 domain enzyme in assay buffer
Outline: (§1)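 Competitive TR-FRET binding: compounds dispensed as an 11-point 3-fold dilution series, then Tb-labelled antibody and tracer added to the JH2 protein system. Incubated at 25°C, then overnight at 4°C; FRET signal read on Envision and IC50 (nM) derived.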

JAK1-JH2 domain = molecular target: T2, JAK1-JH2 domain (Homo sapiens, UniProt P23458); assay: Binding activity test for JH2 domain of JAK1 (Tb-antibody/tracer FRET); conditions: JH2 domain enzyme; 60 min at 25°C, then 4°C overnight; read-out: JAK1 JH2 Binding IC50
T2 construct: JAK1-JH2 domain or TYK2-JH2 domain enzyme in assay buffer
Outline: as §1

[1] = test system: Ba/F3-FL-TYK2-P760L cells; assay: Anti-proliferative assay in engineered Ba/F3 cells (Cell-Titer Glo, 72 h); assay type: cell-based; conditions: Mus musculus, BaF3, 72 h, 72 h compound treatment, concentration that causes 50% growth inhibition, read-out: Baf3-FL-T2P760L
Outline: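 Ba/F3 cells carrying Tel-dimerization/JAK kinase fusion, IL-3-independent, in RPMI-1640 + 10% FBS; 9-point 3-fold dilutions from 20 µM (0.1% DMSO) added after 24 h, 72 h at 37 °C. Viability by Cell-Titer Glo ATP luminescence; % inhibition versus DMSO cells, blank-corrected, giving IC50.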

T1 sequence (P29597 589-875 limits assumed): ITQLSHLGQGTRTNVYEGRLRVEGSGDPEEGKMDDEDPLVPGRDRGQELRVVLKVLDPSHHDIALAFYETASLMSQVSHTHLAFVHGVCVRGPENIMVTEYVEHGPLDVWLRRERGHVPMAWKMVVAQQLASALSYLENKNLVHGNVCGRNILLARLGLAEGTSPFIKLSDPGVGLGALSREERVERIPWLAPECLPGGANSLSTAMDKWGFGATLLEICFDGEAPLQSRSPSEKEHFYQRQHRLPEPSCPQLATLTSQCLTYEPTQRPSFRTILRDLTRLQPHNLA
T2 sequence (P23458 583-855 limits assumed): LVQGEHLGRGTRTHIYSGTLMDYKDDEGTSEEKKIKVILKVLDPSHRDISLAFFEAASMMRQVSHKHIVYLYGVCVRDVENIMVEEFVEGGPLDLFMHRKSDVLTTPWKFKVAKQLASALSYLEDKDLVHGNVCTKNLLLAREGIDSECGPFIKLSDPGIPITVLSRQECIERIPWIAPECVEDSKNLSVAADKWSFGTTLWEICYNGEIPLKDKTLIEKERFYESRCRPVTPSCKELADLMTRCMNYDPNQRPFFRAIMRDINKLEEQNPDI

Structure (SMILES)	IC50 (TYK2-JH2 domain) [nM]	JAK1/TYK2 selectivity (TYK2-JH2 domain)	IC50 (JAK1-JH2 domain) [nM]	IC50 [1] [nM]
[2H]C([2H])([2H])C([2H])([2H])C(=O)c1cnc(NC(=O)C2CC2)cc1Nc1nn(C)c2ccc([C@H](O)C(F)(F)F)c(OC)c12 [Example 154, (S)-N-(4-((4-methoxy-1-methyl-5-(2,2,2-trifluoro-1-hydroxyethyl)-1H-indazol-3-yl)amino)-5-(propanoyl-d5)pyridin-2-yl)cyclopropanecarboxamide]	0.066	104.27	6.88	0.455
[2H]C([2H])([2H])CC(=O)c1cnc(NC(=O)C2CC2)nc1Nc1cccc(-c2cnn(C)n2)c1OC [Example 167, N-(4-((2-methoxy-3-(2-methyl-2H-1,2,3-triazol-4-yl)phenyl)amino)-5-(propanoyl-3,3,3-d3)pyrimidin-2-yl)cyclopropanecarboxamide]	0.275	116.34	32	60.9
COc1c(Nc2cc(NC(=O)C3CC3)ncc2C(C)(F)F)cccc1-c1cnn(C)n1 [Example 168, N-(5-(1,1-difluoroethyl)-4-((2-methoxy-3-(2-methyl-2H-1,2,3-triazol-4-yl)phenyl)amino)pyridin-2-yl)cyclopropanecarboxamide]	0.27	3.81	1.03	19.1
COC(=O)c1cnc(Nc2ccc(F)cn2)cc1Nc1nn(C)c2ccc([C@H](OC)C(F)(F)F)c(OC)c12 [Example 169, Methyl (S)-6-((5-fluoropyridin-2-yl)amino)-4-((4-methoxy-1-methyl-5-(2,2,2-trifluoro-1-methoxyethyl)-1H-indazol-3-yl)amino)nicotinate]	0.19	>1571	> 298	8.33
[2H]C([2H])([2H])NC(=O)c1cnc(Nc2ccc(F)cn2)cc1Nc1nn(C)c2ccc([C@H](OC)C(F)(F)F)c(OC)c12 [Example 171, (S)-6-((5-fluoropyridin-2-yl)amino)-4-((4-methoxy-1-methyl-5-(2,2,2-trifluoro-1-methoxyethyl)-1H-indazol-3-yl)amino)-N-(methyl-d3)nicotinamide]	0.171	99.17	17	1.03
[2H]C([2H])([2H])OCc1ccc2c(c(Nc3cc(NC(=O)C4CC4)ncc3C(F)(F)CC)nn2C)c1OC [Example 172, N-(5-(1,1-difluoropropyl)-4-((4-methoxy-5-((methoxy-d3)methyl)-1-methyl-1H-indazol-3-yl)amino)pyridin-2-yl)cyclopropanecarboxamide]	0.79	22.99	18.2	21.9
[2H]C([2H])([2H])NC(=O)c1cnc(Nc2ccc(N3CCOCC3)cn2)cc1Nc1nn(C)c2ccc([C@H](OC)C(F)(F)F)c(OC)c12 [Example 173, (S)-4-((4-methoxy-1-methyl-5-(2,2,2-trifluoro-1-methoxyethyl)-1H-indazol-3-yl)amino)-N-(methyl-d3)-6-((5-morpholinopyridin-2-yl)amino)nicotinamide]	0.161	14.83	2.39	0.401
CCC(F)(F)c1cnc(NC(=O)C2CC2)cc1Nc1nccc(-c2cnn(C)n2)c1OC [Example 174, N-(5-(1,1-difluoropropyl)-4-((3-methoxy-4-(2-methyl-2H-1,2,3-triazol-4-yl)pyridin-2-yl)amino)pyridin-2-yl)cyclopropanecarboxamide]	0.86	71.45	61.4	15.4
COC(=O)c1cnc(Nc2ccc(Cl)cn2)cc1Nc1nn(C)c2ccc([C@H](OC)C(F)(F)F)c(OC)c12 [Example 175, Methyl (S)-6-((5-chloropyridin-2-yl)amino)-4-((4-methoxy-1-methyl-5-(2,2,2-trifluoro-1-methoxyethyl)-1H-indazol-3-yl)amino)nicotinate]	0.384	>777.34	> 298	18.1
COC1CN(c2ccc3nc(Nc4cc(NC(=O)C5CC5)ncc4C(C)(F)F)nn3c2)C1 [Example 176, N-(5-(1,1-difluoroethyl)-4-((6-(3-methoxyazetidin-1-yl)-[1,2,4]triazolo[1,5-a]pyridin-2-yl)amino)pyridin-2-yl)cyclopropanecarboxamide]	0.768	22.21	17.1	13.3
COc1c(-c2cnn(C)n2)ccnc1Nc1cc(NC(=O)C2CC2)ncc1C(C)(F)F [Example 177, N-(5-(1,1-Difluoroethyl)-4-((3-methoxy-4-(2-methyl-2H-1,2,3-triazol-4-yl)pyridin-2-yl)amino)pyridin-2-yl)cyclopropanecarboxamide]	0.749	8.50	6.37	15.2
COC(=O)c1cnc(Nc2ccn(C)n2)cc1Nc1nn(C)c2ccc([C@H](OC)C(F)(F)F)c(OC)c12 [Example 180, Methyl (S)-4-((4-methoxy-1-methyl-5-(2,2,2-trifluoro-1-methoxyethyl)-1H-indazol-3-yl)amino)-6-((1-methyl-1H-pyrazol-3-yl)amino)nicotinate]	0.176	>1696	> 298	14.3
COCCn1ccc(Nc2cc(Nc3nn(C)c4ccc([C@H](OC)C(F)(F)F)c(OC)c34)c(C(=O)OC)cn2)n1 [Example 181, Methyl (S)-4-((4-methoxy-1-methyl-5-(2,2,2-trifluoro-1-methoxyethyl)-1H-indazol-3-yl)amino)-6-((1-(2-methoxyethyl)-1H-pyrazol-3-yl)amino)nicotinate]	0.309	>966	> 298	35.2
[2H]C([2H])([2H])NC(=O)c1cnc(Nc2cc(CN3CCOCC3)n(C)n2)cc1Nc1nn(C)c2ccc([C@H](OC)C(F)(F)F)c(OC)c12 [Example 182, (S)-4-((4-Methoxy-1-methyl-5-(2,2,2-trifluoro-1-methoxyethyl)-1H-indazol-3-yl)amino)-N-(methyl-d3)-6-((1-methyl-5-(morpholinomethyl)-1H-pyrazol-3-yl)amino)nicotinamide]	0.141	13.95	1.97	0.817
CCC(F)(F)c1cnc(NC(=O)C2CC2)cc1Nc1cccc(-c2cnn(C)n2)c1OC [Example 184, N-(5-(1,1-Difluoropropyl)-4-((2-methoxy-3-(2-methyl-2H-1,2,3-triazol-4-yl)phenyl)amino)pyridin-2-yl)cyclopropanecarboxamide]	0.216	31.71	6.85	14.9
CNC(=O)c1nnc(NC(=O)C2CC2)cc1Nc1nc2ccccn2n1 [Example 185, 4-([1,2,4]Triazolo[1,5-a]pyridin-2-ylamino)-6-(cyclopropanecarboxamido)-N-methylpyridazine-3-carboxamide]	0.565	16.30	9.21	89.1
CNC(=O)c1cnc(NC(=O)C2CC2)cc1Nc1nn(C)c2ccc([C@H](O)C(F)(F)F)c(OC)c12 [Example 189, (S)-6-(Cyclopropanecarboxamido)-4-((4-methoxy-1-methyl-5-(2,2,2-trifluoro-1-hydroxyethyl)-1H-indazol-3-yl)amino)-N-methylnicotinamide]	0.054	64.91	3.5	0.119
CNC(=O)c1cnc(NC(=O)C2CC2)cc1Nc1nn(C)c2ccc([C@H](OC)C(F)(F)F)c(OC)c12 [Example 190, (S)-6-(Cyclopropanecarboxamido)-4-((4-methoxy-1-methyl-5-(2,2,2-trifluoro-1-methoxyethyl)-1H-indazol-3-yl)amino)-N-methylnicotinamide]	0.076	25.71	1.95	0.196
[2H]C([2H])([2H])NC(=O)c1cnc(NC(=O)C2CC2)cc1Nc1nn(C)c2ccc(C(C)C(F)(F)F)c(OC)c12 (centres unmarked) [Example 191, 6-(Cyclopropanecarboxamido)-4-((4-methoxy-1-methyl-5-(1,1,1-trifluoropropan-2-yl)-1H-indazol-3-yl)amino)-N-(methyl-d3)nicotinamide]	0.132	45.15	5.96	2.51
[2H]C([2H])([2H])NC(=O)c1cnc(NC(=O)[C@@H]2C[C@@H]2F)cc1Nc1nn(C)c2ccc([C@H](O)C(F)(F)F)c(OC)c12 [Example 194, 6-((1S,2S)-2-Fluorocyclopropane-1-carboxamido)-4-((4-methoxy-1-methyl-5-((S)-2,2,2-trifluoro-1-hydroxyethyl)-1H-indazol-3-yl)amino)-N-(methyl-d3)nicotinamide]	0.08	48.8	3.9	0.241

Source: patent EP4813463A2, “TYK2 INHIBITORS AND COMPOSITIONS AND METHODS THEREOF” (Lynk Pharmaceuticals Co. Ltd., priority 2023, dated 2024)
